Reference: paper PMC4754833, “Rilpivirine analogs potently inhibit drug-resistant HIV-1 mutants” (Retrovirology, 2016)
Like-named read-outs stand apart in the source and are kept apart here.

Tests used:
[1] = tested on: HIV-1 RT mutant V106A/G190A/F227L; test: single round infection assay, V106A/G190A/F227L; type: cell-based; details: for IC50: Human immunodeficiency virus 1; for fold-change of IC50 of the mutant relative to WT: V106A/G190A/F227L vs WT
Method: (§1) The human osteosarcoma cell line, HOS, was obtained from Dr. Richard Schwartz (Michigan State University, East Lansing, MI) and grown in Dulbecco’s modified Eagle’s medium (Invitrogen, Carlsbad, CA) supplemented with 5 % (v/v) fetal bovine serum, 5 % newborn calf serum, and penicillin (50 units/ml) plus streptomycin (50 µg/ml; Quality Biological, Gaithersburg, MD). Virion production and single-round infectivity assays were used to determine antiviral activity (IC50 values) of the compounds as previously described.
(§2) pNLNgoMIVR-ΔEnv.LUC has been described previously. The RT open reading frame was removed from pNLNgoMIVR-ΔEnv.LUC (digestion with SpeI and SalI) and inserted between the SpeI and SalI sites of pBluescript II KS+. Using that construct as the wild-type template, we prepared the following HIV-1 RT mutants using the QuikChange II XL (Stratagene, La Jolla, CA) site-directed mutagenesis protocol kit: L100I, K103N, Y181C, Y188L, H221Y, K103N/Y181C, G190A, G190S, M230L, P236L, L100I/K103N, K103N/P225H, V106A/G190A/F227L, V106A, L234I, V106A/F227L, V106A/L234I, V106A/F227L/L234I, E40K, D67E, K101E, V111A, E138K, M184I, M184V, K101E/M184I, K101E/M184V, E138K/M184I, E138K/M184V, K101P, Y181I, and K101P/V179I. The following sense oligonucleotides were used with matching cognate antisense oligonucleotides (not shown) (Integrated DNA Technologies, Coralville, IA) in the mutagenesis: L100I, 5′-[…]-3′; L100I 2-103, 5′-[…]-3′; K103N, 5′-[…]-3′; Y181C, 5′-[…]-3′; Y188L, 5′-[…]-3′; H221Y, 5′-[…]-3′; G190A, 5′-[…]-3′; G190S, 5′-[…]-3′; P225H, 5′-[…]-3′; F227, 5′-[…]-3′; M230L, 5′-[…]-3′; P236L, 5′-[…]-3′; V106A, 5′-[…]-3′; L234I, 5′-[…]-3′; E40K, 5′-[…]-3′; D67E, 5′-[…]-3′; K101E, 5′-[…]-3′; V111A, 5′-[…]-3′; E138K, 5′-[…]-3′; M184I, 5′-[…]-3′; M184V, 5′-[…]-3′; K101P, 5′-[…]-3′; Y181I, 5′-[…]-3′; K101P/V179I, 5′-[…]-3′. The double mutants K103N/Y181C, K103N/P225H, and L100I/K103N were made using the previously generated K103N mutant and the appropriate oligonucleotides to add the second mutation, Y181C, P225, and L100I respectively. The double mutants V106A/F227L and V106A/L234I were prepared using the previously generated V106A mutant and the appropriate oligonucleotides to add the second mutation, F227L and L234I, respectively. The double mutants K101E/M184I and K101E/M184V were constructed using the previously generated K101E mutant and the appropriate oligonucleotides to add the second mutation, M184I and M184V, respectively. The double mutants E138K/M184I and E138K/M184V were constructed using the previously generated E138K mutant and the appropriate oligonucleotides for the second mutation, M184I and M184V, respectively. The triple mutant V106A/F227L/L234I was made using the previously generated V106A/F227L double mutant and the appropriate oligonucleotides for the third mutation, L234I. The triple mutant V106A/G190A/F227L was constructed in a series of steps using the previously generated V106A mutant and the appropriate oligonucleotides for the second mutation, G190A, to generate the double mutant V106A/G190A, and then the triple mutant was made using double mutant V106A/G190A and oligonucleotides for the third mutation, F227L. The DNA sequence of each construct was verified by DNA sequence determination. The sequences encoding the mutant RTs were then subcloned into pNLNgoMIVR-ΔEnv.LUC (between the KpnI and SalI sites) to produce the mutant HIV-1 constructs. These DNA sequences were also checked independently by DNA sequence determination.
(§3) 10.1186/s12977-016-0244-2 The IC50 values (nM) of RPV and the RPV analogs were determined against the NNRTI resistant mutants were measured by using a single round infection assay, n = 4. The concentrations (nM) are measured by reductions in luciferase reporter activity followed by the standard deviations. […]

HIV-1 RT mutant M230L = test: single round infection assay, M230L; type: cell-based; details: for IC50: ± SD, n=4, limit of detection 100 nM; for fold-change of IC50 of the mutant relative to WT: M230L vs WT
Method: as §1, §2, §3

[2] = tested on: HIV-1 RT mutant E138K/M184I; test: single round infection assay, E138K/M184I; type: cell-based; details: for fold-change of IC50 of the mutant relative to WT: E138K/M184I vs WT; for IC50: ± SD, n=4
Method: as §1, §2, §3

HIV-1 RT mutant E138K = test: single round infection assay, E138K; type: cell-based; details: for fold-change of IC50 of the mutant relative to WT: E138K vs WT; for IC50: ± SD, n=4
Method: as §1, §2, §3

[3] = tested on: HIV-1 RT mutant E138K/M184V; test: single round infection assay, E138K/M184V; type: cell-based; details: for fold-change of IC50 of the mutant relative to WT: E138K/M184V vs WT; for IC50: ± SD, n=4
Method: as §1, §2, §3

HIV-1 RT mutant K101P = test: single round infection assay, K101P; type: cell-based; details: for IC50: Human immunodeficiency virus 1
Method: as §1, §2, §3

HIV-1 RT mutant Y181I = test: single round infection assay, Y181I; type: cell-based; details: for IC50: Human immunodeficiency virus 1; for fold-change of IC50 of the mutant relative to WT: Y181I vs WT
Method: as §1, §2, §3

HIV-1 RT mutant D67E = test: single round infection assay, D67E; type: cell-based; details: for fold-change of IC50 of the mutant relative to WT: D67E vs WT; for IC50: ± SD, n=4
Method: as §1, §2, §3

HIV-1 RT mutant H221Y = tested on: HIV-1 RT mutant H221Y; design: method as in PMID 23217210; details: previous study; cited from earlier work
[4] = tested on: HIV-1 RT mutant K103N/P225H; test: single round infection assay, K103N/P225H; type: cell-based; details: for IC50: Human immunodeficiency virus 1; for fold-change of IC50 of the mutant relative to WT: K103N/P225H vs WT
Method: as §1, §2, §3

WT HIV-1 [5] = test: single round infection luciferase assay, WT HIV-1; type: cell-based; details: Human immunodeficiency virus 1
Method: as §1, §2, §3

HIV-1 RT mutant K101E = test: single round infection assay, K101E; type: cell-based; details: for IC50: ± SD, n=4; for fold-change of IC50 of the mutant relative to WT: K101E vs WT
Method: as §1, §2, §3

WT HIV-1 [6] = details: previous study; cited from earlier work
[7] = Human immunodeficiency virus 1, M230L
[8] = Human immunodeficiency virus 1, E138K/M184I
[9] = Human immunodeficiency virus 1, E138K
[10] = Human immunodeficiency virus 1, E138K/M184V
[11] = Human immunodeficiency virus 1, D67E
[12] = Human immunodeficiency virus 1, K101E

Row | SMILES | IC50 [1] [nM] | fold-change of IC50 of the mutant relative to WT [1] | IC50 (HIV-1 RT mutant M230L; [7]) [nM] | fold-change of IC50 of the mutant relative to WT (HIV-1 RT mutant M230L) | fold-change of IC50 of the mutant relative to WT [2] | fold-change of IC50 of the mutant relative to WT (HIV-1 RT mutant E138K) | IC50 (HIV-1 RT mutant E138K; [9]) [nM] | fold-change of IC50 of the mutant relative to WT [3] | IC50 [3, 10] [nM] | IC50 (HIV-1 RT mutant K101P) [nM] | IC50 (HIV-1 RT mutant Y181I) [nM] | fold-change of IC50 of the mutant relative to WT (HIV-1 RT mutant Y181I) | fold-change of IC50 of the mutant relative to WT (HIV-1 RT mutant D67E) | IC50 (HIV-1 RT mutant D67E; [11]) [nM] | IC50 (HIV-1 RT mutant H221Y) [nM] | IC50 [4] [nM] | fold-change of IC50 of the mutant relative to WT [4] | IC50 (WT HIV-1 [5]) [nM] | fold-change of IC50 of the mutant relative to WT (HIV-1 RT mutant K101E) | IC50 (WT HIV-1 [6]) [nM] | other results
1 | Cc1cc(/C=C/C#N)cc(C)c1Nc1nc(Nc2ccc(F)cc2)c2nc[nH]c2n1 [compound 17] | 10.8 ± 2.5 | 5 | 21.1 | 10 | 2 | 6 | 13.5 | < 2 | 2.3 ± 0.02 | 100 | 78.9 | 36 | 12 | 26 | < 7 | 3.4 ± 0.2 | < 2 | 2.2 ± 0.4 | 4 | < 7 | IC50 [2, 8]: 5.2 ± 1.1 nM; IC50 (HIV-1 RT mutant K101E; [12]): 8.9 nM
2 | Cc1cc(/C=C/C#N)cc(C)c1-n1cnc2cnc(Nc3ccc(C#N)cc3)nc21 [compound 27] | 2.2 ± 1.2 | 4 | < 6.1 | 7 | < 2 | 2 | < 2.5 | 3 | < 2.5 | 4.9 | 23.1 | 40 | 2 | – | < 7 | 2.1 ± 0.93 | 4 | 0.58 ± 0.24 | 2 | < 7 | IC50 (HIV-1 RT mutant M230L; M230L): 4.2 ± 0.5 nM; IC50 (HIV-1 RT mutant E138K; E138K): 1.3 ± 0.14 nM; IC50 ([3]; E138K/M184V): 1.8 ± 0.8 nM; fold-change of IC50 of the mutant relative to WT (HIV-1 RT mutant K101P; K101P vs WT): 8
3 | Cc1cc(/C=C/C#N)cc(C)c1Nc1ncc(N)c(Nc2ccc(C#N)cc2)n1 [compound 9] | 4.6 ± 0.3 | 4 | 29.6 | 23 | 2 | 4 | < 6 | 4 | < 6 | > 100 | > 100 | – | 3 | < 6 | < 7 | 4.6 ± 0.3 | 4 | 1.3 ± 0.2 | 3 | < 7 | IC50 ([2]; E138K/M184I): 3 ± 0.3 nM; IC50 [2, 8]: < 6 nM; IC50 (HIV-1 RT mutant E138K; E138K): 5.6 ± 1.4 nM; IC50 ([3]; E138K/M184V): 5.5 ± 1 nM; IC50 (HIV-1 RT mutant D67E; D67E): 4.2 ± 0.8 nM; IC50 (HIV-1 RT mutant K101E; [12]): < 6 nM; IC50 (HIV-1 RT mutant K101E; K101E): 4.1 ± 1.5 nM
4 | COc1ccc(Nc2nc(Nc3c(C)cc(/C=C/C#N)cc3C)nc3[nH]cnc23)cc1 [compound 16] | 1.7 ± 0.2 | 10 | – | 15 | 5 | 11 | < 2.5 | 10 | < 2.5 | > 100 | 63.2 | 372 | 16 | < 2.5 | < 7 | 2.7 ± 0.07 | 16 | 0.17 ± 0.01 | 5 | < 7 | IC50 (HIV-1 RT mutant E138K; E138K): 1.9 ± 0.01 nM; IC50 ([3]; E138K/M184V): 1.7 ± 0.35 nM; IC50 (HIV-1 RT mutant D67E; D67E): 2.7 ± 0.8 nM
